We go through one compound from US11685766B2, “14-3-3 targeting peptides for cancer treatment” (Creighton University, priority 2019, dated 2023).

For this assay, the target named is T1, 14-3-3ε heterodimerization (Homo sapiens, UniProt P62258).
T1 construct: endogenous in cells; host or cells: SCC12B.2
T1 sequence (P62258 1-255): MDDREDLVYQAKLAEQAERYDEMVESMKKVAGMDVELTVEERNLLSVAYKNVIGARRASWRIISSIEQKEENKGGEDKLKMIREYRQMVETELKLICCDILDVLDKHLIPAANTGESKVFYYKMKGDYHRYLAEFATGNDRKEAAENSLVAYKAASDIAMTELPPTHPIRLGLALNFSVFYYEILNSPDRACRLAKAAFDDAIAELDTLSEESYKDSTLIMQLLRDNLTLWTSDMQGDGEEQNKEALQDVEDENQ
The experiment in a line: Co-immunoprecipitation / immunoblot of 14-3-3ε heterodimerization. It counts as cell-based. Conditions: SCC12B.2 cells, 20 μM, 48 hours, vs vehicle. The procedure: Co-Immunoprecipitation was performed using a Dynabeads Protein G Immunoprecipitation kit (Life Technologies, Carlsbad, Calif., USA). Beads were coupled to antibodies targeting 14-3-3ε (Fisher Scientific, Waltham, Mass., USA) or Akt (Thermo Fisher) at a ratio of 7 μg of antibody for every 1 mg of beads according to the manufacturers protocol. SCC12B.2 cells were treated with vehicle (20 mM Tris buffer, pH 7.5) or fresh ES1P2 targeting peptide daily at the IC50 concentration for 48 hours in Opti-MEM I Reduced Serum Medium (Invitrogen) and collected by trypsinization. […]
Protein was collected by either standard whole-cell lysis using ice-cold radioimmunoprecipitation assay (RIPA) lysis buffer supplemented with protease (Roche Life Scientific) and phosphatase inhibitors (NaF, Na3VO4) or by nuclear/cytosolic extraction using the NE-PER Nuclear and Cytoplasmic Protein Extraction Reagent Kit according to the manufacturer's protocol (Pierce, Rockford, Ill., USA). […] Protein concentration was assessed with the Bradford assay. […] Bands were detected using horseradish peroxidase-conjugated secondary antibodies (IgG mouse or rabbit) (Cell Signaling) and visualized using western lightning plus chemiluminescent reagent (MidSci, Valley Park, Mo., USA) and signal read on a Chemidoc XRS Molecular Imager (Bio-Rad Laboratories, Hercules, Calif., USA).
(In general: Immunoblotting shows a protein as a band on a membrane.)

Peptide text beside a SMILES is read from it.

`NCCCC[C@H](NC(=O)[C@H](Cc1c[nH]c2ccccc12)NC(=O)[C@H](Cc1ccc(O)cc1)NC(=O)[C@@H](N)Cc1c[nH]c2ccccc12)C(N)=O` [ES1P2, Trp-Tyr-Trp-Lys-NH2] (H-WYWK-NH2): the 14-3-3ε heterodimerization entry was “reduces 14-3 3ε heterodimerization”.
